From patent US20130197071A1, “PRODUCTION OF LIPOXYGENASE INHIBITORS VIA FUNGAL BIOSYNTHETIC PATHWAY” (UNIVERSITY OF SOUTHERN CALIFORNIA, priority 2012, published 2013)
“Also recorded” adds a separate entry of the source. Read-outs that look alike come from different tables or passages of the source.

Columns and labels:
[1] = target: T1, soybean LOX-1 (Lipoxygenase-1, 15-Lipoxygenase) (Glycine max, UniProt P08170); assay: Soybean lipoxygenase-1 (LOX-1) inhibition assay, spectrophotometric at 234 nm, linoleic acid substrate; assay type: biochemical; details: for LOX-1 inhibition (result in words): screening for soybean LOX-1 inhibition
T1 construct: purchased Cayman Chemical #60712
T1 sequence (P08170 1-839): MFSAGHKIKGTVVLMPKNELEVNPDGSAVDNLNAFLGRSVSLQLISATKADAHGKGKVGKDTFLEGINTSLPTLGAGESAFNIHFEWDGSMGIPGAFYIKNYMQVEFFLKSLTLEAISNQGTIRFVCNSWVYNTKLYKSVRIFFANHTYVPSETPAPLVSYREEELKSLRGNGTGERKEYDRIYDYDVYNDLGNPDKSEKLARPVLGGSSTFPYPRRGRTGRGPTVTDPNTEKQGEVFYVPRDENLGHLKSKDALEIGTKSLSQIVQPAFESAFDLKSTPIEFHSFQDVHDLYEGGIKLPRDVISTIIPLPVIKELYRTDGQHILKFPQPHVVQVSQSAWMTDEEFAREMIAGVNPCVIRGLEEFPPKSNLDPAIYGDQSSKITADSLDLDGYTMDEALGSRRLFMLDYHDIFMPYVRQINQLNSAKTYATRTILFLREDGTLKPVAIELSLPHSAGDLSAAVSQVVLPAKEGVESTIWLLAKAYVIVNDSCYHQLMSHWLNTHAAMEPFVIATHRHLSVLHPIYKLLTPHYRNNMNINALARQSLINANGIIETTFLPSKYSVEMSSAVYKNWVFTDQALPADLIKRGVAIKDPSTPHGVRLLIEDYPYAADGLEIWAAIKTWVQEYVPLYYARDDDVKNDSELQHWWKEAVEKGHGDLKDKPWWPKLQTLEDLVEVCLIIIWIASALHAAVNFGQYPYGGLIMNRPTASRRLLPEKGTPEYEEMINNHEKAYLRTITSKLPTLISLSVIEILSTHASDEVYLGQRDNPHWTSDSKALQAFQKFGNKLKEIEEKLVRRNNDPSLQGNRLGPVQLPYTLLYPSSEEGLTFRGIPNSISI
Description: ^1H and ^13C NMR spectra were recorded on a Varian Mercury Plus 400 spectrometer. Chemical shifts are reported in ppm relative to CDCl3 (^1H, δ 7.26; ^13C, δ 77.0) or acetone-d6 (^1H, δ 2.05; ^13C, δ 30.0, 206.0). ^1H NMR data is reported as: chemical shift, multiplicity (s=singlet, d=doublet, t=triplet, q=quartet, m=multiplet), coupling constant, and integration. Infrared spectra were recorded on a JASCO FTIR-4100. Infrared frequencies are reported in reciprocal centimeters. High resolution electrospray ionization mass was obtained on an Agilent 6210 time of flight LC-MS. Reactions were monitored by analytical thin-layer chromatography on EMD silica gel-60^F254 plates. Flash chromatography was performed on EMD silica gel 60, 70-230 mesh. All reagents were used without further purification unless otherwise noted. Reagents were purchased from Sigma-Aldrich, and Alfa Aesar. Diethyl ether (anhydrous) and 1,2-dichloroethane (anhydrous) were used directly from the bottle. Water sensitive reactions were performed under a nitrogen atmosphere with oven-dried glassware. Kinetic experiments for lipoxygenase inhibition were recorded on a Shimadzu UV-2401PC at 26° C. Materials for the lipoxygenase assay such as linoleic acid, 15-Lipoxygenase (soybean PO, and (+)-sclerotiorin were purchased from Cayman Chemicals.
The enzyme assay was performed according to Axelrod et. al.^18 Each solution was prepared and measured at room temperature. Enzyme kinetics was measured on a Shimadzu UV-2401PC at a wavelength of 234 nm in a quartz cuvette (FIG. 6). For the assay, the linoleic acid substrate was prepared by mixing 20 μL linoleic acid (Cayman Chemical #760716) with 20 μL KOH (Cayman Chemical #760713) and 40 μL double distilled water. Lipoxygenase-1 (Cayman Chemical #60712) was diluted from original stock concentration to a concentration of 100 U/mL in the cuvette. The semisynthetic azaphilones were prepared as stock concentrations in dimethylsulfoxide (DMSO) from 20 μM to 10 mM; 54, was added to the assay mixture to give the desired final concentration of the inhibitor with 1% of DMSO in the assay.
The spectrophotometric assay is based on monitoring the reaction, catalyzed by LOX-1 to convert linoleic acid (L) to the hydroperoxide (LOOH), at 234 nm. […] The reaction is initiated when the non-heme iron of LOX-1 in the ferric state is reduced by the substrate L. While in the enzyme-substrate complex, L is oxidized and converted to the peroxide free radical (LOO.), and subsequently released from the enzyme as LOOH Inhibitors can interfere in the process in several different ways to prevent the generation of LOOH by the chelation of iron, removal of oxygen or prevention of free radical formation.
Prior to measurements, a sample with buffer was used as a blank. In a quartz cuvette, each sample was prepared with 482.54, 0.2 M borate buffer (at a pH of 9.0) mixed with 54, inhibitor and 54, substrate by pipetting the solution. The cuvette was placed in the spectrophotometer and measured for 120 seconds and then rapidly 7.54, lipoxygenase-1 was added and mixed to initiate the reaction. Measurements were recorded every 30 seconds for 7.5 minutes.
Inhibition of an enzyme at 50% can be experimentally measured by monitoring enzyme kinetics. A kinetic study generates a curve where the slope provides the initial velocity (Vo) of the enzyme. For each sample with different inhibitor concentrations the initial velocity was derived from a linear segment between […]. The absorbance was used directly and not converted into concentration units. […] The concentration of inhibitor at which 50% inhibition occurred (as measured by change in Vo) was reported as the IC50.

[2] = Solubility of compound 5 in aqueous culture media; assay type: physicochemical; details: liquid lactose minimal medium culture
Source text: The fungal strain used to over-produce compound 5 contains genetic alterations as described in Table 1. The native promoter of afoA, the gene that codes for the pathway-specific transcription activator of the asperfuranone pathway was replaced with the inducible alcohol dehydrogenase promoter, alcA. The afoD gene, that codes for the hydroxylase in the asperfuranone pathway, was deleted to enable the accumulation of intermediate, compound 5.^11 It should be noted that the afo cluster is silent under normal laboratory growing conditions. The wild type strain, thus, produced non-detectable compound 5 and asperfuranone (4).

[3] = target: T1, soybean LOX-1 (Lipoxygenase-1, 15-Lipoxygenase); details: literature report (ref. 5); cited from earlier work
[4] = soybean LOX-1, linoleic acid, 0.2 M borate buffer pH 9.0, 1% DMSO, 234 nm, read-out: Lipoxygenase-1 Inhibitory Activity IC50 (μM) ± s.d.

Compound	IC50 [1, 4] [µM]	other results
CC[C@H](C)/C=C(C)/C=C/C(=O)Cc1cc(O)c(C)c(O)c1C=O (stereo in doubt) [Compound 5, 2,4-dihydroxy-6-(5,7-dimethyl-2-oxo-trans-3-trans-5-nonadienyl)-3-methylbenzaldehyde]	97.2 ± 2	Solubility in aqueous media (in words) [2]: poorly dissolved in aqueous media
CC[C@H](C)/C=C(C)/C=C/C1=CC2=C(Cl)C(=O)[C@](C)(OC(C)=O)C(=O)C2=CO1 [Compound 1, (+)-sclerotiorin, reference compound]	7.8 ± 2.4	LOX-1 inhibition of (+)-sclerotiorin according to a report [3]: potent LOX-1 inhibition
CC[C@H](C)/C=C(C)/C=C/C1=CC2=CC(=O)C(C)(OC(C)=O)C(=O)C2=CO1 (stereo partly drawn) [Compound 7]	4.9 ± 3.3	LOX-1 inhibition (result in words) [1]: highest lipoxgyenase-1 inhibition; also recorded: most effective
CC[C@H](C)/C=C(C)/C=C/C1=CC2=C(Cl)C(=O)C(C)(OC(C)=O)C(=O)C2=CO1 (stereo partly drawn) [Compound 8]	2.3 ± 0.9	
CC[C@H](C)/C=C(C)/C=C/C1=CC2=C(Br)C(=O)C(C)(OC(C)=O)C(=O)C2=CO1 (stereo partly drawn) [Compound 9]	6.8 ± 4.5	
CC[C@H](C)/C=C(C)/C=C/C1=CC2=C(I)C(=O)C(C)(OC(C)=O)C(=O)C2=CO1 (stereo partly drawn) [Compound 10]	17.4 ± 8.1	
CC[C@H](C)/C=C(C)/C=C/C1=CC2=CC(=O)C(C)(O)C(=O)C2=CO1 (stereo partly drawn) [Compound 11]	10.7 ± 6.6	
CC[C@H](C)/C=C(C)/C=C/C1=CC2=C(Cl)C(=O)C(C)(O)C(=O)C2=CO1 (stereo partly drawn) [Compound 12]		IC50 [1]: 7.9 ± 3.9 µM
CC[C@H](C)/C=C(C)/C=C/C1=CC2=C(Br)C(=O)C(C)(O)C(=O)C2=CO1 (stereo partly drawn) [Compound 13]	3.2 ± 1.5	LOX-1 inhibition (result in words) [1]: highest lipoxgyenase-1 inhibition; also recorded: most effective
CC[C@H](C)/C=C(C)/C=C/C1=CC2=C(I)C(=O)C(C)(O)C(=O)C2=CO1 (stereo partly drawn) [Compound 14]	19.6 ± 11.9	
CCOC(=O)C=C1C2=COC(/C=C/C(C)=C/[C@@H](C)CC)=CC2=CC(=O)C1(C)O (stereo partly drawn) [Compound 15]	> 100	
CCOC(=O)C=C1C2=COC(/C=C/C(C)=C/[C@@H](C)CC)=CC2=C(Br)C(=O)C1(C)O (stereo partly drawn) [Compound 16]	> 100	
CCOC(=O)C=C1C2=COC(/C=C/C(C)=C/[C@@H](C)CC)=CC2=C(I)C(=O)C1(C)O (stereo partly drawn) [Compound 17]	> 100	
asperfuranone [Compound 4]	> 100	
